In patent US11590116B2 (THERAVANCE BIOPHARMA R&D IP, LLC, priority 2019, dated 2023):

Experiments:
[1] = tested on: TGF-β-stimulated SMAD3 phosphorylation in BEAS-2B cells; assay: Cellular ALK5 potency assay, inhibition of TGF-β stimulated pSMAD3 formation in BEAS-2B cells; type: cell-based; conditions: Homo sapiens; inhibition of TGF-β stimulated pSMAD3 formation, BEAS-2B cells; read-out: BEAS2B pIC50 (converted)
Procedure: The potency of compounds of the present disclosure for inhibition of TGF-β-stimulated SMAD3 phosphorylation was measured in BEAS-2B cells, a human lung epithelial cell line. TGF-β signals through activin receptor-like kinase 5 (ALK5) immediately prior to SMAD3 phosphorylation.
BEAS-2B cells were grown using 50% DMEM (Life Technologies) and 50% F-12 (Life Technologies) media, supplemented with 10% Fetal Bovine Serum (ATCC), 25 mM HEPES (Life Technologies), and 1× Pen-Strep (Life Technologies). Cells were cultured in a humidified incubator set at 37° C., 5% CO2, and trypsonized using 0.25% Trypsin with 0.5% polyvinylpyrrolidone (PVP).
For the assay, BEAS-2B cells were seeded at 7,500 cells/well (25 μL/well) in a 384-well plate and cultured overnight. Before dosing, growth media was aspirated and the wells were rinsed with HBSS Buffer (HBSS with Calcium and Magnesium, Life Technologies) supplemented with 25 mM HEPES (Life Technologies) and 1% Bovine Serum Albumin (Roche). Compounds were serially diluted in DMSO, then further diluted with supplemented HBSS Buffer (50 μL/well) to create a compound plate 3× of the final assay concentration, at 0.3% DMSO. The diluted compounds were then added to the cells (8 μL/well) and incubated at 37° C., 5% CO2 for 1 hour. After the compound incubation, TGF-β (R&D Systems) reconstituted in supplemented HBSS Buffer was added to the cells ([…], final concentration 10 ng/mL) and incubated for a further 30 minutes, after which the cells were immediately lysed with AlphaLISA lysis buffer (PerkinElmer). AlphaLISA Acceptor and Detector beads (PerkinElmer) were added 2 hours apart, then incubated overnight to be read the next day. The potency of the compound was determined through analysis of dose-dependent quantified changes in pSMAD3 signal from baseline (non-compound treated TGF-β stimulated cells). Data are expressed as pIC50 (negative decadic logarithm IC50) values.

[2] = target: T1, recombinant human ALK5 (TGF-βR1) protein (Homo sapiens, UniProt P36897); assay: Biochemical ALK5 (TGF-βR1) assay to measure pKi (LANCE Ultra ULight kinase assay); conditions: apparent pKi from pIC50 by Cheng-Prusoff, read-out: ALK5 pKi (converted)
T1 construct: purchased Life Technologies PR9075A
T1 sequence (P36897 34-503): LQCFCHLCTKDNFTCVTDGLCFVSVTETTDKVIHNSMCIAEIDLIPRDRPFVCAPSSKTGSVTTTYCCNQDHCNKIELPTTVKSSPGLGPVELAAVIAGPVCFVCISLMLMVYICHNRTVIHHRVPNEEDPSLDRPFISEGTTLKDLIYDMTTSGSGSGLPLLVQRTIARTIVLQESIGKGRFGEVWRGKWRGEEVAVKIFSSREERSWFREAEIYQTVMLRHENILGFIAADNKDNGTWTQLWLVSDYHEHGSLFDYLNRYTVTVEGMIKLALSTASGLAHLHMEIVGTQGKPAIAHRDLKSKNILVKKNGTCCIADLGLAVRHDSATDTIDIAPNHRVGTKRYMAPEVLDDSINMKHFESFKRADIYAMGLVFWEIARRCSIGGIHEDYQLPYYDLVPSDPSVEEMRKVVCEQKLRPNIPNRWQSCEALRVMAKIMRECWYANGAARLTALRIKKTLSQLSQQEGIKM
Procedure: The assays were performed in a 384-well plate (24 columns×16 wells/rows). An Echo® 550 Liquid Handler (Labcyte) was used to prepare various intermediate concentrations of compounds of the present disclosure in 100% DMSO. From the intermediate concentrations, a range of concentrations (from 10 μM to 25 pM corresponding to volumes up to 105 nL) were prepared and ejected into a final assay plate to be used to create individual dose response curves for each of the subject compounds. To a separate column within the assay plate, 105 nL of DMSO in each well was used to establish a maximum assay signal.
With a multidrop dispenser, 8 μL of enzyme mixture (1.25× final) was added to each well. […] The plate was then sealed with an adhesive seal and allowed to equilibrate for 60 minutes at room temperature.
Next, 2 μL of 125 μM ATP (5× final, 125 μM ATP prepared in assay buffer with 2 mM DTT) was added to the incubated mixtures, covered with a MicroClime® Environmental Lid (Product No. LLS-0310, Labcyte) and immediately transferred to 37° C. The reactions were allowed to proceed at 37° C. for 60 minutes before terminating with the addition of 10 μL of detection antibody (LANCE® (lanthanide chelate excite) Ultra Europium-anti-phospo-DNA Topoisomerase 2-alpha (Thr1342)) in detection mixture (12 mM EDTA, 4 nM detection antibody prepared in detection buffer (50 mM Tris-HCl, 150 mM NaCl, 0.5% BSA (Fraction V), pH 7.0)) at room temperature. The plate was then read on a Perkin Elmer EnVision Plate Reader using europium specific reader settings with excitation and emission wavelengths set to 320 or 340 nm and 665 nm, respectively.
For dose-response analyses, percent inhibition versus compound concentrations were plotted, and pIC50 values were determined from a 4-parameter robust fit model with GraphPad Prism V5 Software (GraphPad Software, Inc., La Jolla, Calif.). This model obtains pIC50 values by fitting the sigmoidal dose-response (variable slope) equation to the data. Results were expressed as pIC50 (negative logarithm of IC50) and subsequently converted to pKi (negative logarithm of dissociate constant, K) using the Cheng-Prusoff equation. The higher the value of pKi (lower value of Ki), the greater the inhibition of ALK5 activity.

Ki [2] [nM] | SMILES | IC50 [1] [nM]
0.0398 to 0.316 | Cc1nc(-c2nc3ccccn3c2-c2ccc3ncc(NCCN4CCN(C(C)C)CC4)cc3n2)ccc1F [Compound 290, 6-[2-(5-fluoro-6-methyl-2-pyridyl)imidazo[1,2-a]pyridin-3-yl]-N-[2-(4-isopropylpiperazin-1-yl)ethyl]-1,5-naphthyridin-3-amine] | 25.1 to 158
0.0398 to 0.316 | Cc1cccc(-c2[nH]cnc2-c2ccc3ncc(-c4cc(C(=O)OC5CNC5)ccn4)cc3c2)n1 [Compound 1074, azetidin-3-yl 2-[6-[5-(6-methyl-2-pyridyl)-1H-imidazol-4-yl]-3-quinolyl]pyridine-4-carboxylate] | 25.1 to 158
0.0398 to 0.316 | Cc1cccc(-c2[nH]cnc2-c2ccc3ncc(-c4cnc(C(=O)O[C@H]5CCNC5)nc4)cc3c2)n1 [Compound 1072, [(3S)-pyrrolidin-3-yl] 5-[6-[5-(6-methyl-2-pyridyl)-1H-imidazol-4-yl]-3-quinolyl]pyrimidine-2-carboxylate] | 200 to 1260
0.0398 to 0.316 | Cc1cccc(-c2n[nH]cc2-c2ccc3ncc(-c4ccc(C)nc4C)cc3n2)n1 [Compound 436, 7-(2,6-dimethyl-3-pyridyl)-2-[3-(6-methyl-2-pyridyl)-1H-pyrazol-4-yl]-1,5-naphthyridine] | 25.1 to 158
0.0398 to 0.316 | Cc1cccc(-c2[nH]cnc2-c2ccc3ncc(-c4ccc5c(c4)CNCC5)cc3c2)n1 [Compound 609, 6-[5-(6-methyl-2-pyridyl)-1H-imidazol-4-yl]-3-(1,2,3,4-tetrahydroisoquinolin-7-yl)quinoline] | < 20
0.0398 to 0.316 | Cc1cccc(-c2[nH]cnc2-c2ccc3ncc(NCCNC4CCCNC4)cc3c2)n1 (racemic) [Compound 217, N-[6-[5-(6-methyl-2-pyridyl)-1H-imidazol-4-yl]-3-quinolyl]-N′-[rac-(3R)-3-piperidyl]ethane-1,2-diamine] | 200 to 1260
0.0398 to 0.316 | Cc1cccc(-c2[nH]cnc2-c2ccc3ncc(NCCN4CCC[C@H](N)C4)cc3c2)n1 [Compound 623, N-[2-[(3S)-3-amino-1-piperidyl]ethyl]-6-[5-(6-methyl-2-pyridyl)-1H-imidazol-4-yl]quinolin-3-amine] | 200 to 1260
0.0398 to 0.316 | Cc1cccc(-c2[nH]cnc2-c2ccc3ncc(-c4cccc(C(=O)O)c4)cc3c2)n1 [Compound 794, 3-[6-[5-(6-methyl-2-pyridyl)-1H-imidazol-4-yl]-3-quinolyl]benzoic acid] | 1580 to 10000
0.0398 to 0.316 | Cc1cccc(-c2[nH]cnc2-c2ccc3ncc(C4=CC(N)CCC4)cc3c2)n1 (stereo not shown) [Compound 138, 3-[6-[5-(6-methyl-2-pyridyl)-1H-imidazol-4-yl]-3-quinolyl]cyclohex-2-en-1-amine] | 25.1 to 158
0.0398 to 0.316 | Cc1cccc(-c2[nH]cnc2-c2ccc3ncc(C4=CCC5(CCNCC5)CC4)cc3c2)n1 [Compound 392, 9-(6-(5-(6-methylpyridin-2-yl)-1H-imidazol-4-yl)quinolin-3-yl)-3-azaspiro[5.5]undec-8-ene] | 25.1 to 158
0.398 to 3.16 | Cc1cccc(-c2n[nH]cc2-c2ccc3nccc(C(=O)NCN4CCOCC4)c3n2)n1 [Compound 807, 6-[3-(6-methyl-2-pyridyl)-1H-pyrazol-4-yl]-N-(morpholinomethyl)-1,5-naphthyridine-4-carboxamide] | –
3.98 to 31.6 | Cc1cccc(-c2n[nH]cc2-c2ccc3nccc(C(=O)NCCN4CCN(C(C)C)CC4)c3n2)n1 [Compound 808, N-[2-(4-isopropylpiperazin-1-yl)ethyl]-6-[3-(6-methyl-2-pyridyl)-1H-pyrazol-4-yl]-1,5-naphthyridine-4-carboxamide] | –
– | CNCCn1cc(-c2cnc3ccc(-c4c[nH]nc4-c4ccc(F)c(C)n4)nc3c2C)cn1 [Compound 870, 2-[4-[6-[3-(5-fluoro-6-methyl-2-pyridyl)-1H-pyrazol-4-yl]-4-methyl-1,5-naphthyridin-3-yl]pyrazol-1-yl]-N-methyl-ethanamine] | 25.1 to 158
0.0398 to 0.316 | Cc1cccc(-c2[nH]cnc2-c2ccc3ncc(-c4ncc(C(=O)OC5CCNCC5)s4)cc3c2)n1 [Compound 1022, piperidin-4-yl 2-(6-(5-(6-methylpyridin-2-yl)-1H-imidazol-4-yl)quinolin-3-yl)thiazole-5-carboxylate] | –
0.0398 to 0.316 | Cc1cccc(-c2[nH]cnc2-c2ccc3ncc(-c4csc(C(=O)OC[C@H]5CC[C@H](N)CC5)c4)cc3c2)n1 [Compound 1245, (4-aminocyclohexyl)methyl 4-[6-[5-(6-methyl-2-pyridyl)-1H-imidazol-4-yl]-3-quinolyl]thiophene-2-carboxylate] | –
0.0398 to 0.316 | CCOC(=O)[C@H](C)NP(=O)(OCc1cnc2ccc(-c3cn[nH]c3-c3cccc(C)n3)nc2c1)Oc1ccccc1 (stereo partly drawn) [Compound 464, ethyl (2S)-2-[[[6-[5-(6-methyl-2-pyridyl)-1H-pyrazol-4-yl]-1,5-naphthyridin-3-yl]methoxy-phenoxy-phosphoryl]amino]propanoate] | –
0.0398 to 0.316 | Cc1cccc(-c2[nH]cnc2-c2ccc3ncc(N4CCC(NCCSC(CCO)C(=O)O)C4)cc3c2)n1 (stereo not shown) [Compound 720, 4-hydroxy-2-[2-[[1-[6-[5-(6-methyl-2-pyridyl)-1H-imidazol-4-yl]-3-quinolyl]pyrrolidin-3-yl]amino]ethylsulfanyl]butanoic acid] | –
– | Cc1nc(-c2n[nH]cc2-c2ccc3ncc(-c4cnn(C5CC(N)C5)c4)cc3n2)ccc1F (stereo not shown) [Compound 647, 3-[4-[6-[3-(5-fluoro-6-methyl-2-pyridyl)-1H-pyrazol-4-yl]-1,5-naphthyridin-3-yl]pyrazol-1-yl]cyclobutanamine] | 25.1 to 158
– | Cc1nc(-c2n[nH]cc2-c2ccc3ncc(-c4cnn(C5CCC(N)CC5)c4)cc3n2)ccc1F (stereo not shown) [Compound 459, 4-[4-[6-[3-(5-fluoro-6-methyl-2-pyridyl)-1H-pyrazol-4-yl]-1,5-naphthyridin-3-yl]pyrazol-1-yl]cyclohexanamine] | 25.1 to 158
3.98 to 31.6 | Cc1cccc(-c2[nH]ncc2-c2ccc3nccc(C(=O)O[C@H]4CC[C@](C)(N)CC4)c3c2)n1 [Compound 1135, (4-amino-4-methyl-cyclohexyl) 6-[5-(6-methyl-2-pyridyl)-1H-pyrazol-4-yl]quinoline-4-carboxylate] | –
0.398 to 3.16 | Cc1cccc(-c2n[nH]cc2-c2ccc3nccc(C(=O)NCCCN4CCOCC4)c3n2)n1 [Compound 803, 6-[3-(6-methyl-2-pyridyl)-1H-pyrazol-4-yl]-N-(3-morpholinopropyl)-1,5-naphthyridine-4-carboxamide] | –
